Experimental data: patent US7223776B2, “Compounds with anti-bacterial activity” (priority 2002, dated 2007)

assay: Anti-bacterial activity: MHK measured against a panel of bacterial strains; assay type: cell-based; settings: in relation to at least one of the listed strains (strain not specified); read-out: MHK
Experimental: The MHK (μg/ml) of those compounds was measured in relation to the following bacterial strains: S. aureus ATCC 29213, S. aureus 16, E. faecalis ATCC 29212, E. faecium vanA E25-1, H. influenzae 11, E. coli ATCC 25922, M. catarrhalis 117, S. pneumoniae ATCC 49619. Examples 5–6, 8, 11–16, 18–26, 30, 44–45, 47–58 have an MHK<=0.125 in relation to at least one of the listed strains.

MIC [µg/mL] | SMILES
≤ 0.5 | COc1ccc2nccc(C(O)CN3CCOC(CNCc4ccc5c(c4)OCCO5)C3)c2c1 (racemic) [Example 61, 2-((2RS)-{[(2,3-Dihydro-benzo[1,4]dioxin-6-ylmethyl)-amino]-methyl}-morpholin-4-yl)-(1RS)-(6-methoxy-quinolin-4-yl)-ethanol]
≤ 0.125 | COc1ccc2ncnc(OCC3CCC(NCc4ccc5c(c4)NC(=O)CO5)CC3)c2c1 (stereo not shown) [Example 44, 6-{[4-(6-Methoxy-quinazolin-4-yloxymethyl)-cyclohexylamino]-methyl}-4H-benzo[1,4]oxazin-3-one]
≤ 0.125 | COc1ccc2ncnc(OCC3CCC(NC/C=C/c4ccccc4)CC3)c2c1 (stereo not shown) [Example 45, [4-(6-Methoxy-quinazolin-4-yloxymethyl)-cyclohexyl]-(3-phenyl-allyl)-amine]
≤ 0.5 | COc1ccc2ncnc(OCC3CCC(NCC(=O)Nc4ccccn4)CC3)c2c1 (stereo not shown) [Example 46, 2-[4-(6-Methoxy-quinazolin-4-yloxymethyl)-cyclohexylamino]-N-pyridin-2-yl-acetamide]
≤ 0.5 | COc1ccc2nccc(C(O)CN3CCC=C(CNCc4ccc5c(c4)OCCO5)C3)c2c1 (stereo not shown) [Example 59, 2-(5-{[(2,3-Dihydro-benzo[1,4]dioxin-6-ylmethyl)-amino]-methyl}-3,6-dihydro-2H-pyridin-1-yl)-1-(6-methoxy-quinolin-4-yl)-ethanol]

More lines, now with the values behind:

SMILES | MIC [µg/mL]
COc1ccc2nccc(C(O)CN3CCC[C@@H](CNCc4ccc5nsnc5c4)C3)c2c1 (mixture of isomers) [Example 6, (3S)-2-(3-{[(Benzo[1,2,5]thiadiazol-5-ylmethyl)-amino]-methyl}-piperidin-1-yl)-(1RS)-(6-methoxy-quinolin-4-yl)-ethanol] | ≤ 0.125
COc1ccc2nccc(C(O)CN3CCC[C@@H](CNCc4ccc5c(c4)NC(=O)CO5)C3)c2c1 (mixture of isomers) [Example 5, (3S)-6-[({1-[2-Hydroxy-2-(6-methoxy-quinolin-4-yl)-ethyl]-piperidin-(3RS)-ylmethyl}-amino)-methyl]-4H-benzo[1,4]oxazin-3-one] | ≤ 0.125
COc1ccc2nccc(C(O)CN3CCC[C@@H](CNCc4ccc5c(c4)OCCCO5)C3)c2c1 (mixture of isomers) [Example 7] | ≤ 0.5
COc1ccc2nccc(C(O)CN3CCC[C@@H](CNCc4ccc5c(c4)OCO5)C3)c2c1 (mixture of isomers) [Example 9, 2-((3S)-{[(2,3-Dihydro-benzo[1,3]dioxo-6-ylmethyl)-amino]-methyl}-piperidin-1-yl)-(1RS)-(6-methoxy-quinolin-4-yl)-ethanol] | ≤ 0.5
COc1ccc2nccc(C(O)CN3CCCC(NCc4ccc5c(c4)OCCO5)CC3)c2c1 (racemic) [Example 34] | ≤ 0.5
COc1ccc2nccc(CCC3CCC(NCc4ccc5c(c4)NC(=O)CO5)CC3)c2c1 (stereo not shown) [Example 30, 6-({4-[2-(6-Methoxy-quinolin-4-yl)-ethyl]-cyclohexylamino}-methyl)-4H-benzo[1,4]oxazin-3-one] | ≤ 0.125
COc1ccc2ncnc(OCC3CCC(NCc4ccc5c(c4)OCCO5)CC3)c2c1 (stereo not shown) [Example 42, (2,3-Dihydro-benzo[1,4]dioxin-6-ylmethyl)-[4-(6-methoxy-quinazolin-4-yloxymethyl)-cyclohexyl]-amine] | ≤ 0.5
COc1ccc2ncnc(OCC3CCC(NCc4cnc5ccccc5n4)CC3)c2c1 (stereo not shown) [Example 43, [4-(6-Methoxy-quinazolin-4-yloxymethyl)-cyclohexyl]-quinoxalin-2-ylmethyl-amine] | ≤ 0.5

same assay, conditions: read-out: MHK

SMILES | MIC [µg/mL]
COc1ccc2nccc([C@@H](O)CN3CCC[C@@H](CNCc4ccc5c(c4)OCCO5)C3)c2c1 [Example 8, 2-((3S)-{[(2,3-Dihydro-benzo[1,4]dioxin-6-ylmethyl)-amino]-methyl}-piperidin-1-yl)-(1S)-(6-methoxy-quinolin-4-yl)-ethanol] | ≤ 0.125
COc1ccc2ncnc(CCC3(O)CCC(NCc4ccc5c(c4)OCO5)CC3)c2c1 (stereo not shown) [Example 10, 4-[(Benzo[1.3]dioxol-5-ylmethyl)-amino]-1-[2-(6-methoxy-quinazolin-4-yl)-ethyl]-cyclohexanol] | ≤ 0.5
CCOc1ccc2nccc(CCC3(O)CCC(NCc4ccc5c(c4)OCO5)CC3)c2c1 (stereo not shown) [Example 17] | ≤ 0.5
